According to article PMC8234231, “In Vitro Inhibition of Renal OCT2 and MATE1 Secretion by Antiemetic Drugs” (International Journal of Molecular Sciences, 2021):
Entries after “also recorded” stand apart in the source; their conditions may differ. Where two headings read alike, the source gives them in different places.

Tests used:
[1] = molecular target: T1, human OCT2 (Homo sapiens, UniProt O15244); test: Inhibition of ASP+ uptake in HEK293 cells overexpressing OCT2; format: cell-based; details: for IC50: HEK293-OCT2, ASP+ 10 μM, 1 min, 37 °C, Avg ± SE (n = 3)
T1 construct: expressed in transfected cells; gift of Dr. Kathy Giacomini, UCSF
T1 sequence (O15244 1-555): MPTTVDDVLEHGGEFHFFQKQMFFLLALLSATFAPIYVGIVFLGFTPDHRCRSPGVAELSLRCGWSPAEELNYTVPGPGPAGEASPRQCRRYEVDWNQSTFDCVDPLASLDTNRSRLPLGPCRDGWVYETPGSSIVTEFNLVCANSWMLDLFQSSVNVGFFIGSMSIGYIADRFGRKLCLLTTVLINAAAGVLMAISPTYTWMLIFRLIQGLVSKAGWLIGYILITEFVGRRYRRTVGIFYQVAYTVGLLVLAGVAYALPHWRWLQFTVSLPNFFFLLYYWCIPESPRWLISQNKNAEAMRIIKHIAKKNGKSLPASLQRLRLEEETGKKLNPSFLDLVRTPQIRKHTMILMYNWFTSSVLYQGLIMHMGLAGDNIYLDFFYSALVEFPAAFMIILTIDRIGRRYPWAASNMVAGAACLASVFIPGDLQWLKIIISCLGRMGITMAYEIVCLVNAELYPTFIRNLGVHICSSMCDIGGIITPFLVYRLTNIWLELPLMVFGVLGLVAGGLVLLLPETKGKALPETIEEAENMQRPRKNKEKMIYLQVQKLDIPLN
Description: (§1) After washing once with prewarmed Hank’s Buffered Saline Solution (HBSS), cells were preincubated for 30 min at 37 °C with various 5-HT3 antagonists for OCT2 cells or in a 30 mM NH4Cl solution in HBSS at pH 6.5 for MATE1 cells for intracellular acidification. Uptake into OCT2 cells was initiated through exposure to 10 μM of fluorescent substrate ASP^+ directly in the incubation media. Uptake into MATE1 cells was initiated by application of HBSS at pH 7.4 containing 5-HT3 antagonists and 10 μM of fluorescent substrate ASP^+. […] Media was removed and washed four times with ice-cold HBSS. Cells were lysed with 1% Triton X-100. […] Intracellular fluorescence was normalized to total protein concentration of cell lysates from each well using the bicinchoninic acid (BCA) assay (Pierce Biotechnology, Rockford, IL, USA). Experiments were repeated three separate times, with three to four replicates in each experiment.
(§2) GraphPad Prism v6 (GraphPad Software, La Jolla, CA, USA) was used for statistical analysis.

[2] = system: empty vector (EV) HEK293 cells; test: ASP+ uptake in empty vector (EV) HEK293 cells in presence of inhibitors; format: cell-based, human; details: ASP+ 10 μM
Excerpt: Media was removed and washed four times with ice-cold HBSS. Cells were lysed with 1% Triton X-100. […] Experiments were repeated three separate times, with three to four replicates in each experiment.

[3] = system: OCT2 and MATE1; test: Inhibition of basolateral-to-apical transcellular transport of ASP+ in OCT2/MATE1 double-transfected MDCK cells (Transwell); details: human
Description: (§3) Control and OCT2/MATE1-expressing MDCK cells were evaluated for protein expression of OCT2 and MATE1 using SDS-PAGE and western blotting with specific primary antibodies (OCT2, sc292622 1:500 and MATE1, sc133390 1:250, Santa Cruz Biotechnology, Santa Cruz, CA, USA), followed by an antirabbit HRP-conjugated secondary antibody (1:1000, Sigma Aldrich, St. Louis, MO, USA) and Super Signal Western Dura Extended Duration Substrate (Pierce Biotechnology, Rockford, IL, USA). Detection was performed with a FluorChem imager (ProteinSimple, Santa Clara, CA, USA). Both MDCK cell lines were seeded on 0.4 μm transwell inserts (VWR, Radnor, PA, USA) at a density of 2 × 10^5 cells/cm^2. Transport experiments were performed 3 to 5 days after seeding. The integrity of MDCK monolayers was verified by measuring transepithelial electrical resistance (TEER) >150 Ω*cm^2 using an epithelial voltohmmeter, EVOM^2 (World Precision Instruments, Sarasota, FL). Proper formation of tight junctions was also verified by measurement of passive permeability of lucifer yellow in the basolateral-to-apical (B-to-A) direction. Lucifer yellow (20 μM) was applied to the basolateral chamber for 1 h, and media were collected from the apical chamber.
(§4) After washing the cells once with Hank’s Buffered Saline Solution (HBSS) pH 7.4, transport studies were initiated after aspirating the wash buffer from both the apical and basal chambers. […] Cells were lysed with 1% Triton X-100. […] Intracellular fluorescence was normalized to total protein concentration of cell lysates from each transwell using the BCA assay. Experiments were performed in three individual Transwell inserts.

[4] = system: human OCT2 and MATE1; test: Intracellular accumulation of ASP+ in OCT2/MATE1 double-transfected MDCK cells; format: cell-based; details: 120 min; for effect on intracellular ASP+ accumulation: inhibitor 0.5–20 μM, ASP+ 25 μM; for increase in intracellular ASP+ accumulation: inhibitor 20 μM (highest concentration)
Description: Cells were incubated with 5-HT3 antagonists in the apical chamber in HBSS pH 6.0 and 5-HT3 antagonists with ASP^+ (25 μM) in the basolateral chamber in HBSS pH 7.4 and incubated at 37 °C for 120 min. To measure time-dependent transcellular transport, an aliquot of the incubation medium (100 μL) from the apical chamber (receiving chamber) was collected at 40, 60, 90, and 120 min and replaced with an equal volume of fresh buffer containing 5-HT3 antagonist or the positive control chemical at the original concentration. […] Cells were lysed with 1% Triton X-100. […] Experiments were performed in three individual Transwell inserts.

[5] = molecular target: T2, MATE1 (Homo sapiens, UniProt Q96FL8); test: Inhibition of ASP+ uptake in HEK293 cells overexpressing MATE1; format: cell-based; details: for IC50: HEK293-MATE1, ASP+ 10 μM, 1 min, 37 °C, Avg ± SE (n = 3)
T2 construct: expressed in transfected cells; gift of Dr. Kathy Giacomini, UCSF
T2 sequence (Q96FL8 1-570): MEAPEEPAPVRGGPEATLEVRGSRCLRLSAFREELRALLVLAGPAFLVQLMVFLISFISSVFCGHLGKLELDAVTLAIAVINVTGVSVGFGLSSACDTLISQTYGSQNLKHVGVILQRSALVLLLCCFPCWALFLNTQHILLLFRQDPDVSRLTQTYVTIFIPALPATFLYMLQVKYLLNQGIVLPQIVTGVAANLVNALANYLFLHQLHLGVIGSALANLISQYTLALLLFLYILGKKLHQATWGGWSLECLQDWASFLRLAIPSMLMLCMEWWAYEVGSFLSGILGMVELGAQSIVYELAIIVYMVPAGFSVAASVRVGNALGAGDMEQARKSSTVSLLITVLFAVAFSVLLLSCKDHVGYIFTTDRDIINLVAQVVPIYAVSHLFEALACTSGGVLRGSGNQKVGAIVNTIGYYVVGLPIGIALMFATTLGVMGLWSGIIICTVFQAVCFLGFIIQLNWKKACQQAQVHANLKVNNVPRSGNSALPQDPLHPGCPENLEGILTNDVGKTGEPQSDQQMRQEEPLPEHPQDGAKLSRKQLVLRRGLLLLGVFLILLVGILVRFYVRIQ
Description: as §1, §2

[6] = system: human OCT2 and MATE1; test: Inhibition of basolateral-to-apical transcellular transport of ASP+ in OCT2/MATE1 double-transfected MDCK cells (Transwell); details: for effect on B-to-A transport of ASP+: inhibitor 0.5–20 μM, 40–120 min, ASP+ 25 μM; for effect on transcellular transport of ASP+: inhibitor 10 and 20 μM
Description: as §3, §4

[7] = no reference given, cited from earlier work; for metabolized by cytochrome P450 enzymes in the liver: range for the named drugs together
[8] = probe ASP+ (25 μM, basolateral chamber)

SMILES | IC50 [1] [µM] | effect on ASP+ uptake in EV cells [2] | IC50 [5] [µM] | effect on B-to-A transport of ASP+ [6] | effect on transcellular transport of ASP+ [6] | half-life [7] [h] | metabolized by cytochrome P450 enzymes in the liver [7] | also measured
CN/C(=N/CCSCc1nc[nH]c1C)NC#N [Cimetidine] | 24.5 ± 4 | had no influence on ASP^+ uptake | – | – | – | – | – | inhibition at 120 min, 5 μM [3, 8]: 18%; inhibition at 120 min, 50 μM [3, 8]: 40%; increase in intracellular accumulation of ASP+ ([4]; cimetidine concentration not stated in the sentence (5 and 50 μM tested)): 1.8 fold
O=C(O[C@@H]1C[C@@H]2C[C@H]3C[C@H](C1)N2CC3=O)c1c[nH]c2ccccc12 [Dolasetron] | 85.4 ± 3.4 | – | 27.4 ± 2.8 | at 10 and 20 μM inhibited ASP^+ transport at 120 min only | similarly reduced the transcellular transport of ASP^+ | 8 to 9 | – | effect on intracellular ASP+ accumulation [4]: No significant changes in ASP^+ accumulation
CN1C2CCCC1CC(NC(=O)c1nn(C)c3ccccc13)C2 (stereo not drawn) [Granisetron] | 3.8 ± 1.6 | caused a small decrease in ASP^+ accumulation | 5 ± 1.1 | did not alter the B-to-A transport of ASP^+ at any concentration tested; also recorded: did not exhibit any significant inhibition | – | 8 to 9 | 48–95% | increase in intracellular ASP+ accumulation [4]: 1.3 fold
O=C1c2cccc3c2[C@H](CCC3)CN1[C@@H]1CN2CCC1CC2 [Palonosetron] | 2.2 ± 0.3 | stimulated additional ASP^+ uptake | 1.6 ± 0.6 | concentration-dependent inhibition of ASP^+ secretion, which was significant at 10 and 20 μM for all time-points | similarly reduced the transcellular transport of ASP^+ | 40 | 48–95% | effect on intracellular ASP+ accumulation [4]: No significant changes in ASP^+ accumulation
CN1[C@@H]2CC[C@H]1C[C@@H](OC(=O)c1c[nH]c3ccccc13)C2 [Tropisetron] | 31.3 ± 6.6 | stimulated additional ASP^+ uptake | 1.6 ± 0.9 | concentration-dependent inhibition of ASP^+ secretion, which was significant at 10 and 20 μM for all time-points | similarly reduced the transcellular transport of ASP^+ | < 6 | 48–95% | increase in intracellular ASP+ accumulation [4]: 1.5 fold
C[C@@H](O[C@H]1OCCN(Cc2n[nH]c(=O)[nH]2)[C@H]1c1ccc(F)cc1)c1cc(C(F)(F)F)cc(C(F)(F)F)c1 [aprepitant] | – | – | – | – | – | – | – | effect on ASP+ uptake in MATE1-expressing HEK293 cells ([5]; ASP+ 10 μM): had no impact on ASP^+ uptake; effect on ASP+ uptake in OCT2-expressing HEK293 cells ([1]; ASP+ 10 μM): had no impact on ASP^+ uptake
CCN(CC)CCNC(=O)c1cc(Cl)c(N)cc1OC [metoclopramide] | – | – | – | – | – | – | – | inhibition of MATE1 activity [5]: None of these drugs inhibited MATE1 activity; effect on ASP+ uptake in OCT2-expressing HEK293 cells [1]: inhibited OCT2 activity across a range of concentrations
CN1CCN(CCCN2c3ccccc3Sc3ccc(Cl)cc32)CC1 [prochlorperazine] | – | – | – | – | – | – | – | inhibition of MATE1 activity ([5]; inhibitor 10 μM, HEK293-MATE1 (data not shown)): None of these drugs inhibited MATE1 activity; effect on ASP+ uptake in OCT2-expressing HEK293 cells ([1]; ASP+ 10 μM): inhibited OCT2 activity across a range of concentrations
CCc1nc(N)nc(N)c1-c1ccc(Cl)cc1 [pyrimethamine] | – | – | – | – | – | – | – | inhibition at 120 min, 1 μM [3]: 36%; increase in intracellular accumulation of ASP+ ([4]; inhibitor 1 μM): 1.3 fold
